In brackets after ≈: the same amount, converted by molar mass. Counter-ions that a name gives are not always drawn. Like-named read-outs stand apart in the source and are kept apart here.
Columns and labels:
[1] = test system: Mycoplasma gallisepticum S6 (standard strain); assay: Anti-mycoplasma activity in vitro (MIC, broth dilution), strain S6; format: cell-based; details: Mg S6, 37° C., 7 days
Experimental: (§1) (1) Anti-mycoplasma activity test in vitro
(§2) MIC values of each of Tropolones were measured on the following strains according to the following method.
(§3) (a) Mycoplasma gallisepticum
(§4) Medium: Chick PPLO broth supplemented with 20% equine serum (Eiken Kagaku Co., Ltd.)
(§5) Method: Broth dilution method
(§6) Inoculum: Culture incubated at 37° C. for 24-48 hr which is diluted with broth to 10^6 CCU/ml immediately before the use.
(§7) To 1.6 ml of the broth is added 0.2 ml of an agent which has been subjected to 2-fold dilution and then added 0.2 ml of inoculum, which is incubated at 37° C. for 7 days.

[2] = test system: Mycoplasma gallisepticum T-7-T (wild strain, tylosin-resistant); assay: Anti-mycoplasma activity in vitro (MIC, broth dilution), strain T-7-T; format: cell-based; details: Mg T-7-T, 37° C., 7 days
Experimental: as §1, §2, §3
(§8) T-7-T (wild strain, tylosin-resistant)
as §4, §5, §6, §7

[3] = test system: Mycoplasma gallisepticum MR-1 (wild strain, tylosin-resistant); assay: Anti-mycoplasma activity in vitro (MIC, broth dilution), strain MR-1; format: cell-based; details: Mg MR-1, 37° C., 7 days
Experimental: as §1, §2, §3
MR-1 (wild strain, tylosin-resistant)
as §4, §5, §6, §7

[4] = test system: Mycoplasma hyopneumoniae ST-11 (standard strain); assay: Anti-mycoplasma activity in vitro (MIC, broth dilution), strain ST-11; format: cell-based; details: Mh ST-11
Experimental: as §1, §2
(b) Mycoplasma hyopneumoniae
Strain: ST-11 (standard strain)
Medium: 850 ml of Hanks' solution supplemented with 0.5% lactoalbumin, 50 ml of 25% yeast, 100 ml of equine serum and 4-6 ml of 0.5% phenol red (pH 7.4-7.6)
as §5
Inoculum: Culture which is incubated for 3-4 days and diluted 10 times with the broth if color of the broth becomes yellow then. If it needs over 4 days until color of the broth becomes yellow, it is further subcultured. This is diluted 10 times with the broth to give inoculum.
Assay is done in the same manner as in the above (a).

[5] = test system: Mycoplasma gallisepticum S6 (standard strain); assay: Mycoplasma gallisepticum air-sac infection method in chicken, strain S6; format: in vivo, Mycoplasma gallisepticum; SPF chicken (white leghorn)
Experimental: (§9) (2) Test of Effectiveness Mycoplasma gallisepticum air-sac infection method
(§10) Inoculation: To the right air-sac of 9 days old SPF chicken (a white leghorn) which has abstained from water and feed one day before is inoculated 0.20-0.25 ml/chicken of fresh mycoplasma culture incubated for 24-48 hr and diluted with broth (usually 100 times). The concentration in Table 2 is shown in a unit of mg/ml.
(§11) Medium: Chick PPLO broth supplemented with 15% equine serum (Eiken Kagaku Co., Ltd.)
(§12) Administration: A compound of this invention dissolved or suspended in the following solution is orally and forcibly administered once by a cannula immediately after the infection.
(§13) Anatomization and Isolation of Microorganism: The chickens are anatomized 5 days after the infection, and the right and left air sacs are investigated whether they are attacked with a disease or not. The change caused by the disease is represented in four degrees; -: no change, +: slight, ++: medium and +++: serious. Microorganism is isolated from the right and left air-sacs and the trachea by using a sterilized applicator.
(§14) Judgement: Judgement is done through an index of an air-sac disease and an index of a microorganism-isolation.
(§15) Index of an air-sac-disease: First, indexes in the right and left air-sacs are separately calculated according to the following formula;
(§16) {degree of disease (0-3)×chickens}/anatomized chickens
(§17) and the index is calculated by the following formula;
(§18) (index of right air-sac)×1+(index of left air-sac)×2
(§19) Index of a microorganism isolation:
(§20) P: chickens from the right air-sac of which microorganism is isolated,
(§21) Q: chickens from the trachea of which microorganism is isolated,
(§22) R: chickens from the left air-sac of which microorganism is isolated, and
(§23) S: chickens investigated.

[6] = test system: Mycoplasma gallisepticum T-7-T (wild strain, tylosin-resistant); assay: Mycoplasma gallisepticum air-sac infection method in chicken, strain T-7-T;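 on Index of Isolation: index = (P×1 + Q×2 + R×3)/S with range 0 to 6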; format: in vivo, Mycoplasma gallisepticum; SPF chicken (white leghorn); details: 100 mg/kg × once oral, 10 mg/ml sol. b; for Change of air-sac, left: + (chickens) / Change of air-sac, left: ++ (chickens) / Change of air-sac, left: +++ (chickens) / Change of air-sac, left: - (chickens) / Change of air-sac, right: + (chickens) / Change of air-sac, right: ++ (chickens) / Change of air-sac, right: +++ (chickens) / Change of air-sac, right: - (chickens) / Isolation, L (left air-sac) / Isolation, R (right air-sac) / Isolation, T (trachea) / Mycoplasma Isolated Chickens: inoculum 10^2; for Index of Isolation: inoculum 10^2, range 0-6.0; for Index of Disease: inoculum 10^2, range 0-9.0
Experimental: as §9, §8, §10, §11, §12, §13, §14, §15, §16, §17, §18, §19, §20, §21, §22, §23

[7] = 200 mg/kg × once oral, 20 mg/ml sol. b, inoculum 1.18 × 10^6
[8] = Mycoplasmoides gallisepticum, 168 h, read-out: MIC
[9] = Mesomycoplasma hyopneumoniae, read-out: MIC
[10] = 100 mg/kg × once oral, 10 mg/ml sol. b, inoculum 1.2 × 10^6
[11] = 100 mg/kg × once oral, 10 mg/ml sol. b, inoculum 1.2 × 10^6, range 0-6.0
[12] = 100 mg/kg × once oral, 10 mg/ml sol. b, inoculum 1.2 × 10^6, range 0-9.0
[13] = 100 mg/kg × once oral, 10 mg/ml sol. b, inoculum 7.7 × 10^5
[14] = 100 mg/kg × once oral, 10 mg/ml sol. b, inoculum 7.7 × 10^5, range 0-6.0
[15] = 100 mg/kg × once oral, 10 mg/ml sol. b, inoculum 7.7 × 10^5, range 0-9.0

O=c1cccccc1O [Compound 12, Tropolone L-arginine salt]
MIC [1]: 3.13 µg/mL
MIC [2]: 3.13 µg/mL
MIC [3]: 3.13 µg/mL
MIC [4]: 1.56 µg/mL
Change of air-sac, left: + (chickens) [5, 7]: 0
Change of air-sac, left: ++ (chickens) [5, 7]: 0
Change of air-sac, left: +++ (chickens) [5, 7]: 0
Change of air-sac, left: - (chickens) [5, 7]: 5
Change of air-sac, right: + (chickens) [5, 7]: 1
Change of air-sac, right: ++ (chickens) [5, 7]: 0
Change of air-sac, right: +++ (chickens) [5, 7]: 0
Change of air-sac, right: - (chickens) [5, 7]: 4
Isolation, L (left air-sac) [5, 7]: 0
Isolation, R (right air-sac) [5, 7]: 2
Isolation, T (trachea) [5, 7]: 1
Mycoplasma Isolated Chickens [5, 7]: 2
Index of Isolation ([5]; 200 mg/kg × once oral, 20 mg/ml sol. b, inoculum 1.18 × 10^6, range 0-6.0): 0.8
Index of Disease ([5]; 200 mg/kg × once oral, 20 mg/ml sol. b, inoculum 1.18 × 10^6, range 0-9.0): 0.2

CC(C)(C)C(=O)OCOc1cccccc1=O [Compound 19, O-(pivaloyloxymethyl)tropolone]
MIC [1, 8]: 0.39 µg/mL (≈ 1.65 µM)
MIC [2, 8]: 0.78 µg/mL (≈ 3.3 µM)
MIC [3, 8]: 1.56 µg/mL (≈ 6.6 µM)
MIC [4, 9]: 0.1 µg/mL (≈ 0.423 µM)
Change of air-sac, left: + (chickens) [5, 10]: 0
Change of air-sac, left: ++ (chickens) [5, 10]: 0
Change of air-sac, left: +++ (chickens) [5, 10]: 0
Change of air-sac, left: - (chickens) [5, 10]: 8
Change of air-sac, right: + (chickens) [5, 10]: 0
Change of air-sac, right: ++ (chickens) [5, 10]: 0
Change of air-sac, right: +++ (chickens) [5, 10]: 0
Change of air-sac, right: - (chickens) [5, 10]: 8
Isolation, L (left air-sac) [5, 10]: 1
Isolation, R (right air-sac) [5, 10]: 1
Isolation, T (trachea) [5, 10]: 2
Mycoplasma Isolated Chickens [5, 10]: 2
Index of Isolation [5, 11]: 1.01
Index of Disease [5, 12]: 0
Change of air-sac, left: + (chickens) [6]: 0
Change of air-sac, left: ++ (chickens) [6]: 0
Change of air-sac, left: +++ (chickens) [6]: 0
Change of air-sac, left: - (chickens) [6]: 8
Change of air-sac, right: + (chickens) [6]: 0
Change of air-sac, right: ++ (chickens) [6]: 0
Change of air-sac, right: +++ (chickens) [6]: 0
Change of air-sac, right: - (chickens) [6]: 8
Isolation, L (left air-sac) [6]: 2
Isolation, R (right air-sac) [6]: 1
Isolation, T (trachea) [6]: 5
Mycoplasma Isolated Chickens [6]: 5
Index of Isolation [6]: 2.00
Index of Disease [6]: 0

O=C1OC(Oc2cccccc2=O)c2ccccc21 (stereo not shown) [Compound 23, O-(1,3-Dihydro-3-oxo-1-isobenzofuranyl)tropolone]
MIC [1, 8]: 0.39 µg/mL (≈ 1.53 µM)
MIC [2, 8]: 0.78 µg/mL (≈ 3.07 µM)
MIC [3, 8]: 0.78 µg/mL (≈ 3.07 µM)
MIC [4, 9]: 0.39 µg/mL (≈ 1.53 µM)
Change of air-sac, left: + (chickens) [5, 10]: 0
Change of air-sac, left: ++ (chickens) [5, 10]: 0
Change of air-sac, left: +++ (chickens) [5, 10]: 0
Change of air-sac, left: - (chickens) [5, 10]: 8
Change of air-sac, right: + (chickens) [5, 10]: 0
Change of air-sac, right: ++ (chickens) [5, 10]: 0
Change of air-sac, right: +++ (chickens) [5, 10]: 0
Change of air-sac, right: - (chickens) [5, 10]: 8
Isolation, L (left air-sac) [5, 10]: 1
Isolation, R (right air-sac) [5, 10]: 1
Isolation, T (trachea) [5, 10]: 4
Mycoplasma Isolated Chickens [5, 10]: 4
Index of Isolation [5, 11]: 1.90
Index of Disease [5, 12]: 0
Change of air-sac, left: + (chickens) [6]: 0
Change of air-sac, left: ++ (chickens) [6]: 0
Change of air-sac, left: +++ (chickens) [6]: 0
Change of air-sac, left: - (chickens) [6]: 8
Change of air-sac, right: + (chickens) [6]: 0
Change of air-sac, right: ++ (chickens) [6]: 0
Change of air-sac, right: +++ (chickens) [6]: 0
Change of air-sac, right: - (chickens) [6]: 8
Isolation, L (left air-sac) [6]: 6
Isolation, R (right air-sac) [6]: 5
Isolation, T (trachea) [6]: 6
Mycoplasma Isolated Chickens [6]: 6
Index of Isolation [6]: 4.20
Index of Disease [6]: 0

Cc1oc(=O)oc1COc1cccccc1=O [Compound 25, O-{(2-Oxo-5-methyl-1,3-dioxol-4-yl)methyl}tropolone]
MIC [1, 8]: 0.39 µg/mL (≈ 1.67 µM)
MIC [2, 8]: 0.39 µg/mL (≈ 1.67 µM)
MIC [3, 8]: 0.39 µg/mL (≈ 1.67 µM)
MIC [4, 9]: 0.2 µg/mL (≈ 0.854 µM)
Change of air-sac, left: + (chickens) [5, 13]: 0
Change of air-sac, left: ++ (chickens) [5, 13]: 0
Change of air-sac, left: +++ (chickens) [5, 13]: 0
Change of air-sac, left: - (chickens) [5, 13]: 8
Change of air-sac, right: + (chickens) [5, 13]: 1
Change of air-sac, right: ++ (chickens) [5, 13]: 0
Change of air-sac, right: +++ (chickens) [5, 13]: 0
Change of air-sac, right: - (chickens) [5, 13]: 7
Isolation, L (left air-sac) [5, 13]: 6
Isolation, R (right air-sac) [5, 13]: 5
Isolation, T (trachea) [5, 13]: 7
Mycoplasma Isolated Chickens [5, 13]: 7
Index of Isolation [5, 14]: 4.38
Index of Disease [5, 15]: 0.13

COc1ccccc(O)c1=O [Compound 26, 7-Methoxytropolone]
MIC [1, 8]: 6.25 µg/mL (≈ 41.1 µM)
MIC [2, 8]: 12.5 µg/mL (≈ 82.2 µM)
MIC [3, 8]: 6.25 µg/mL (≈ 41.1 µM)
MIC [4, 9]: 3.13 µg/mL (≈ 20.6 µM)
Change of air-sac, left: + (chickens) [5, 13]: 0
Change of air-sac, left: ++ (chickens) [5, 13]: 0
Change of air-sac, left: +++ (chickens) [5, 13]: 0
Change of air-sac, left: - (chickens) [5, 13]: 8
Change of air-sac, right: + (chickens) [5, 13]: 4
Change of air-sac, right: ++ (chickens) [5, 13]: 2
Change of air-sac, right: +++ (chickens) [5, 13]: 0
Change of air-sac, right: - (chickens) [5, 13]: 2
Isolation, L (left air-sac) [5, 13]: 8
Isolation, R (right air-sac) [5, 13]: 5
Isolation, T (trachea) [5, 13]: 8
Mycoplasma Isolated Chickens [5, 13]: 8
Index of Isolation [5, 14]: 4.88
Index of Disease [5, 15]: 1.00
